Laboratory results as given in patent US6815465B1, “Heterocyclic compounds inhibiting angiogenesis” (IVAX International GmbH, priority 1999, dated 2004).

What was measured:
[1] = tested on: ECV 304 endothelial cells; assay: Examination of endothelial capillary formation; type: cell-based; conditions: for selectivity index: inhibits the capillary formation better than the cell proliferation, in relation to the borrelidin: ECV 304, from ratios of concentrations inhibiting cell proliferation in 50% and capillary formation, relative to borrelidin
Description: Basal membrane protein gel prepared from murine EHS tumor, which induces capillary formation, was put onto ECV 304 endothelial cells. The treatment with the borrelidin and the novel borrelidin derivatives of general formula (I) according to the invention was carried out in the same way as in case of the examination of cell proliferation. The extent by which the cells take part in the capillary formation was examined microscopically and by the aid of a morphometrical program, and the thus-obtained data were expressed in percent of the untreated control.
Namely, it has been stated that, relating to borrelidin, the cell-proliferation-inhibiting effect of the novel derivatives of general formula (I) definitely decreases whereas the capillary-formation-inhibiting effect changes only in a small degree or not at all. The relative degree of selectivity was determined for each compound by […] the ratios of the active agent concentrations that inhibit the cell proliferation in 50% and which inhibit the capillary formation.

[2] = tested on: Lewis lung adenocarcinoma; assay: Lewis lung adenocarcinoma metastasis model; type: in vivo; conditions: for inhibition of the increase of micrometastases: one fifth of the toxic dose
[3] = tested on: mouse colon adenocarcinoma cells transplanted into the spleen; assay: Colon 38 spleen-liver metastasis model; type: in vivo; conditions: subtoxic administration
From the text: 2. In a colon 38 spleen-liver model [Dong, Z. et al., J. Natl. Cancer Inst.

[4] = in vivo; cited from earlier work
[5] = tested on: cells forming capillary tubules; conditions: cited from earlier work
[6] = tested on: PC-3 of human prostate cancer; conditions: cited from earlier work
[7] = tested on: cell lines WiDr of human colon cancer; conditions: cited from earlier work

C[C@@H]1C[C@H](C)C[C@H](C)[C@@H](O)CC(=O)O[C@H]([C@@H]2CCC[C@H]2C(=O)OCCN2CCOCC2)C/C=C/C=C(/C#N)[C@H](O)[C@@H](C)C1 [Example 1, Borrelidin-2-morpholinoethyl ester]
selectivity index: inhibits the capillary formation better than the cell proliferation, in relation to the borrelidin [1]: 60 times

CC1CC(C)CC(C)C(O)C(C#N)=CC=CCC(C2CCCC2C(=O)OCCc2ccccn2)OC(=O)CC(O)C(C)C1 (stereo not drawn) [Example 2, Borrelidin-2-(2-pyridyl)-ethyl ester]
selectivity index: inhibits the capillary formation better than the cell proliferation, in relation to the borrelidin [1]: 7.5 times

CC1CC(C)CC(C)C(O)C(C#N)=CC=CCC(C2CCCC2C(=O)NCCN2CCOCC2)OC(=O)CC(O)C(C)C1 (stereo not drawn) [Example 4, Borrelidin 2-morpholinoethyl amide]
selectivity index: inhibits the capillary formation better than the cell proliferation, in relation to the borrelidin [1]: 6 times

CC1CC(C)CC(C)C(O)CC(=O)OC(C2CCCC2C(=O)NCc2cccnc2)C(C#N)=CC=CCC(O)C(C)C1 (stereo not drawn) [Example 15, Borrelidin-3-picolylamide]
inhibition of the increase of micrometastases ([2]; intraperitoneal administration): inhibited very considerably | inhibition of the increase of micrometastases ([2]; per os administration): inhibited very considerably | metastasis-forming ability of mouse colon adenocarcinoma cells transplanted into the spleen [3]: considerably decreased

C[C@@H]1C[C@H](C)C[C@H](C)[C@@H](O)CC(=O)O[C@H]([C@@H]2CCC[C@H]2C(=O)O)C/C=C/C=C(/C#N)[C@H](O)[C@@H](C)C1 [borrelidin, 2′-(7-cyano-8,16-dihydroxy-9,11,13,15-tetramethyl-18-oxo-oxacyclooctadeca-4,6-dien-2-yl)-cyclopentane-1′-carboxylic acid]
LD50 value [4]: medium | inhibition of the propagation of metastatic nodules formed after removing the primary tumour in lung ([2]; Lewis lung adenocarcinoma model): inhibited in a very small degree | angiogenesis-inhibiting effect [5]: induces the apoptosis of the cells forming capillary tubules | effectiveness against cell line [6]: effective | difference in sensitivity of proliferation and capillary formation by the endothelial cells, in favour of capillary formation ([1]; endothelial cells): about a five fold difference | effectiveness against cell line [7]: effective
